What was measured:
[1] = test system: Ctenocephalides Felis (Cat Flea); assay: Activity in vitro against Ctenocephalides felis (cat flea), Assay A; details: adult fleas fed on treated blood for 24 h; for pest or weed control at 100 ppm: Ctenocephalides felis, dead fleas counted, read-out: efficacy (EC80)
Description: Activity In Vitro Against Ctenocephalides Felis (Cat Flea)—Assay A
A mixed adult population of fleas is placed in a suitably formatted 96-well plate allowing fleas to access and feed on treated blood via an artificial feeding system. Fleas are fed on treated blood for 24 h, after which the compound effect is recorded. Insecticidal activity is determined on the basis of the number of dead fleas recovered from the feeding system.

[2] = test system: Lucilla Cuprina (Australian sheep blowfly); assay: Activity in vitro against Lucilla cuprina (Australian sheep blowfly), Assay A; details: eggs on agar-based medium; for pest or weed control at 32 ppm: Lucilia cuprina, 96 h, 4 days at 28° C. and 60% relative humidity, read-out: efficacy (EC80)
Description: Activity in vitro against Lucilla Cuprina (Australian sheep blowfly)—Assay A
Freshly laid blowfly eggs are used to seed a suitably formatted microplate containing the test substances to be evaluated for antiparasitic activity. Each compound is tested by serial dilution in order to determine its minimum efficacy dose. The test compounds are embedded in an agar-based nutritive medium allowing the full development of the eggs into 3rd instar larvae. The incubation lasts for 4 days at 28° C. and 60% relative humidity. Egg-hatching and ensuing larval development are also recorded to identify a possible growth-regulating activity.

[3] = test system: Engorged Female Rhipicephalus microplus (Cattle Tick); assay: Activity in vitro against engorged female Rhipicephalus microplus (cattle tick), contact test; details: 672 h, organophosphorous-resistant Ultimo strain, evaluation 28 days later on mortality, oviposition and hatched larvae, read-out: efficacy (EC80)
Description: Activity In Vitro Against Engorged Female Rhipicephalus microplus (Cattle Tick)
A contact test is performed by pre-coating 6-well microplates with serial dilution of the compound to be evaluated for anti-parasitic activity. 10 engorged female ticks of the organophosphorous-resistant Ultimo strain are distributed to each well in triplicates. Plates are then incubated at 28° C. and 80% relative humidity. Evaluation takes place 28 days later based on mortality, oviposition and hatched larvae. […] Activity In Vivo Against Rhipicephalus sanguineus Nymphs on Mongolian Gerbils (Meriones unguiculatus) (Spray Application)

[4] = test system: Rhipicephalus sanguineus Nymphs; assay: Activity in vivo against Rhipicephalus sanguineus nymphs on Mongolian gerbils; details: topical, 0 h, pour on application day 0, tick number reduction vs placebo, Abbott's formula, read-out: efficacy (EC90)
Description: On day 0, gerbils are treated with the test compound at a given dose by pour on application. On day +1 (+2), the animals are infested with nymphs of R. sanguineus. Ticks are left on the animals until full repletion. Seven days after infestation nymphs dropped off fully engorged are collected and counted. They are kept until molting to also evaluate growth regulating activity of the test compound. Efficacy in killing (and growth regulating) is expressed as a tick number (and molted tick number) reduction in comparison with a placebo treated group, using the Abbott's formula:
n=number of live ticks. T=treated group. Co=control/placebo group.

[5] = test system: Lice (Polyplax serrata); assay: Activity in vivo against lice (Polyplax serrata) in mice (topical); details: pour-on application, live lice on day +4 and +14, Henderson & Tilton formula, read-out: efficacy (EC90)
Description: Activity In Vivo Against Lice (Polyplax serrata) in Mice (Topical) Mice naturally infected with P. serrata are treated with the formulated test compound on day 0 by pour-on application. On day +4 and +14, efficacy is evaluated by counting the number of live lice under a binocular. Efficacy at the two time points is expressed as a comparison of lice numbers counted on the same mouse before treatment, using the Henderson & Tilton formula, taking also into account lice numbers found on mice treated with the empty formulation (placebo group): [formula] n=number of lice, T=treated group, Co=control/placebo group.

[6] = test system: Rhipicephalus sanguineus (Dog Tick); assay: Activity in vitro against Rhipicephalus sanguineus (dog tick), Assay A, contact test; details: adult ticks; for pest or weed control at 100 ppm: Rhipicephalus sanguineus, 168 h, 28° C. and 80% relative humidity for 7 days, read-out: efficacy (EC80)
Description: Activity In Vitro Against Rhipicephalus sanguineus (Dog Tick)—Assay A
A contact test is performed by pre-coating microplate with serial dilution of compound allowing evaluating anti-parasitic activity by contact against ticks. A mixed adult tick population is then distributed to each well of the plate and incubated at 28° C. and 80% relative humidity for 7 days, during which the effect of the test compound is monitored. Acaricidal activity is confirmed if and when adult ticks are dead.

Structure (SMILES)	pest or weed control at 100 ppm [1] [%]	EC80 [1] [ppm]	pest or weed control at 32 ppm [2] [%]	pest or weed control at 200 ppm [3] [%]	inhibition in vivo at 32 mg/kg [4] [%]	inhibition in vivo at 32 mg/kg [5] [%]	pest or weed control at 100 ppm [6] [%]	EC50 ([2]; 4 days at 28° C.) [ppm]	EC50 ([6]; 7 days) [ppm]
C#CCN(C(=O)c1cc(Cl)cc(OC(F)(F)F)c1)C(C)c1ncnn1-c1ccccn1 (stereo not drawn) [Example 18, 3-Chloro-N-prop-2-ynyl-N-[1-[2-(2-pyridyl)-1,2,4-triazol-3-yl]ethyl]-5-(trifluoromethoxy)benzamide]	> 80	10	> 80	> 80	> 90	> 90	–	–	–
C#CCN(C(=O)c1cc(C(F)(F)F)cc(C(F)(F)F)c1)C(C)c1ncnn1-c1ncccn1 (stereo not drawn) [Example 35, N-Prop-2-ynyl-N-[1-(2-pyrimidin-2-yl-1,2,4-triazol-3-yl)ethyl]-3,5-bis(trifluoromethyl)benzamide]	> 80	–	> 80	> 80	> 90	> 90	> 80	–	–
CC(c1ncnn1-c1ncccn1)N(CC1CC1)C(=O)c1cc(Cl)cc(OC(F)(F)F)c1 (stereo not drawn) [Example 37, 3-chloro-N-(cyclopropylmethyl)-N-[1-(2-pyrimidin-2-yl-1,2,4-triazol-3-yl)ethyl]-5-(trifluoromethoxy)benzamide]	> 80	–	> 80	> 80	> 90	> 90	> 80	–	–
CC(c1ncnn1-c1ccccn1)N(CCF)C(=O)c1cc(C(F)(F)F)cc(C(F)(F)F)c1 (stereo not drawn) [Example 11, N-(2-Fluoroethyl)-N-[1-[2-(2-pyridyl)-1,2,4-triazol-3-yl]ethyl]-3,5-bis(trifluoromethyl)benzamide]	> 80	–	> 80	> 80	> 90	> 90	> 80	–	–
C#CCN(C(=O)c1cc(Cl)cc(C(F)(F)F)c1)C(C)c1ncnn1-c1ncccn1 (stereo not drawn) [Example 41, 3-Chloro-N-prop-2-ynyl-N-[1-(2-pyrimidin-2-yl-1,2,4-triazol-3-yl)ethyl]-5-(trifluoromethyl)benzamide]	> 80	–	> 80	> 80	> 90	> 90	> 80	1	32
COc1cnc(-n2ncnc2C(C)N(CC2CC2)C(=O)c2cc(C(F)(F)F)cc(C(F)(F)F)c2)nc1 (stereo not drawn) [Example 39, N-(Cyclopropylmethyl)-N-[1-[2-(5-methoxypyrimidin-2-yl)-1,2,4-triazol-3-yl]ethyl]-3,5-bis(trifluoromethyl)benzamide]	> 80	–	> 80	> 80	> 90	> 90	> 80	–	–
CC(c1ncnn1-c1ccccn1)N(CCC(F)(F)F)C(=O)c1cc(C(F)(F)F)cc(C(F)(F)F)c1 (stereo not drawn) [Example 12, N-[1-[2-(2-Pyridyl)-1,2,4-triazol-3-yl]ethyl]-3,5-bis(trifluoromethyl)-N-(3,3,3-trifluoropropyl)benzamide]	–	–	> 80	> 80	> 90	> 90	> 80	–	–
CC(c1ncnn1-c1ccccn1)N(CC1CC1(F)F)C(=O)c1cc(C(F)(F)F)cc(C(F)(F)F)c1 (stereo not drawn) [Example 16, N-[(2,2-Difluorocyclopropyl)methyl]-N-[1-[2-(2-pyridyl)-1,2,4-triazol-3-yl]ethyl]-3,5-bis(trifluoromethyl)benzamide]	> 80	–	> 80	> 80	> 90	> 90	–	–	–
